Test results from patent US10711245B2, “Direct conversion method of human fibroblasts into neural stem cells using small molecules” (KOREA UNIVERSITY RESEARCH AND BUSINESS FOUNDATION, priority 2015, dated 2020).

System: human fibroblasts
Assay: Marker gene expression by quantitative PCR in human fibroblasts cultured with each single small-molecule compound
Assay type: cell-based
Details: each compound alone in neurobasal medium (DMEM/F12, N2, B27, bFGF, EGF), markers nestin, sox1, sox2, pax6
Description: To investigate the function of each of small-molecule compounds and find an optimal combination of small-molecule compounds, 1×10^5 human fibroblasts were prepared in 60 mm dishes, and on the next day, the cells were cultured in a neurobasal medium (containing DMEM/F12, N2, B27, bFGF, and EGF) supplemented with each of 13 different small-molecule compounds (PD0325901, SB431542, Thiazovivin, Ascorbic acid, PS48, CHIR99021, Deazaneplanocin A, Valproic acid, Forskolin, Tranylcypromine, A8301, 5-AZA, and Purmorphamine). Then, the morphological changes of the cells were observed while the medium was replaced at 2-3-day intervals (FIG. 1). The cells were subcultured at 5-day intervals, and in this stage, the cells were sampled in order to examine gene expression patterns therein. Using the cell sample, the expression patterns of a fibroblast marker (Thy1), neural stem cell markers (nestin, sox1, sox2, pax6), a MET or EMT marker (snail, N-cadherin, E-cadherin), endodermal and mesodermal markers (AFP, GATA4), and a marker (Zsacn4) associated with the maintenance of chromosomal stability, in the cell sample, were analyzed by quantitative PCR (FIG. 2).

| Structure (SMILES) | expressions of the neural stem cell marker genes |
| --- | --- |
| Nc1ncn([C@@H]2O[C@H](CO)[C@@H](O)[C@H]2O)c(=O)n1 [5-AZA, 4-amino-1-β-D-ribofuranosyl-1,3,5-triazin-2(1H)-one] | distinctly increased |
| Cc1cccc(-c2nn(C(=S)Nc3ccccc3)cc2-c2ccnc3ccccc23)n1 [A8301, 3-(6-Methyl-2-pyridinyl)-N-phenyl-4-(4-quinolinyl)-1H-pyrazole-1-carbothioamide] | distinctly increased |
| Cc1cnc(-c2cnc(NCCNc3ccc(C#N)cn3)nc2-c2ccc(Cl)cc2Cl)[nH]1 [CHIR99021, 6-[[2-[[4-(2,4-dichlorophenyl)-5-(5-methyl-1H-imidazol-2-yl)-2-pyrimidinyl]amino]ethyl]amino]-3-pyridinecarbonitrile] | distinctly increased |
| Nc1nccc2c1ncn2[C@@H]1C=C(CO)[C@@H](O)[C@H]1O [Deazaneplanocin A, 5R-(4-amino-1H-imidazo[4,5-c]pyridin-1-yl)-3-(hydroxymethyl)-3-cyclopentene-1S,2R-diol] | distinctly increased |
| NC(=O)c1ccc(-c2nc(-c3ccc4c(c3)OCO4)c(-c3ccccn3)[nH]2)cc1 [SB431542, 4-[4-(3,4-Methylenedioxyphenyl)-5-(2-pyridyl)-1H-imidazol-2-yl]benzamide] | distinctly increased |
| O=C(NCc1ccccc1)c1csc(Nc2ccncn2)n1 [Thiazovivin, N-(phenylmethyl)-2-(4-pyrimidinylamino)-4-thiazolecarboxamide] | distinctly increased |
| CCCC(CCC)C(=O)O [Valproic acid, 2-propyl-pentanoic acid] | distinctly increased |
